The text below walks through data of patent publication US20060111309A1, “Chalcomycin derivatives” (Biofrontera Discovery GmbH, priority 2002, published 2006).

Common to all, as to type: cell-based
In experiment [1] the test system is Bacillus subtillis. The experiment in a line: dilution method MIC.
In the next experiment the test system is Mucor miehei. The experiment in a line: agar diffusion test. To be noted: 10 μg/9 mm Ø plate. (In agar diffusion tests the substance spreads into inoculated agar from a disc or well.)
In experiment [2] the test system is Escherichia coli. The experiment in a line: dilution method MIC.
The subject of experiment [3] is Stapylococcus aureus. The experiment in a line: dilution method MIC.
Experiment [4] concerns Bacillus subtillis. The experiment in a line: agar diffusion test. To be noted: 10 μg/9 mm Ø plate.
Another experiment concerns Scenedesmus subspicatus. The experiment in a line: dilution method MIC.
Another experiment has as its system Chlorella sorokiniana. The experiment in a line: dilution method MIC.
The subject of experiment [5] is Stapylococcus aureus. The experiment in a line: agar diffusion test. As to conditions: 10 μg/9 mm Ø plate.
Experiment [6] deals with Escherichia coli. The experiment in a line: agar diffusion test. As to conditions: 10 μg/9 mm Ø plate.
The next experiment relates to Candida albicans. The experiment in a line: agar diffusion test. To be noted: 10 μg/9 mm Ø plate.

≈ marks a conversion by molar mass, not a printed value. Some results are limits rather than exact numbers.

In the case of `CO[C@@H]1[C@H](O)[C@@H](C)O[C@@H](OC[C@H]2[C@@H]3O[C@H]3/C=C/C(=O)[C@@](C)(O)C[C@H](C)[C@H](O[C@@H]3O[C@H](C)C[C@H](OC)[C@H]3O)[C@@H](C)/C=C/C(=O)O[C@@H]2C)[C@@H]1OC` [1a, Chalcomycin], the “MIC, BS” value against Bacillus subtillis [1] was found to be 6.25 µg/mL (≈ 8.92 µM). In addition, the “diameter of the inhibition zone, MM” value in the experiment with Mucor miehei amounted to 0 mm. In the experiment on Escherichia coli [2], the “MIC, EC” value is over 50 µg/mL. Also, the “MIC, SA” value with Stapylococcus aureus [3] worked out at 0.39 µg/mL (≈ 0.556 µM). In the experiment on Bacillus subtillis [4], the “diameter of the inhibition zone, BS” value was 25 mm. In addition, the “MIC, SS” value in the experiment with Scenedesmus subspicatus was found to be 50 µg/mL (≈ 71.3 µM). Moreover, the “MIC, CS” value with Chlorella sorokiniana was 50 µg/mL (≈ 71.3 µM). Further, the “diameter of the inhibition zone, SA” value in the experiment on Stapylococcus aureus [5] came to 30 mm. Besides, the “diameter of the inhibition zone, EC” value in the experiment with Escherichia coli [6] was found to be 32 mm. Besides, the “diameter of the inhibition zone, CA” value with Candida albicans is reported as 0 mm.

On to `CC[C@H]1OC(=O)[C@H](C)[C@@H](O[C@H]2C[C@@](C)(OC)[C@@H](O)[C@H](C)O2)[C@H](C)[C@@H](O[C@@H]2O[C@H](C)C[C@H](N(C)C)[C@H]2O)[C@](C)(O)C[C@@H](C)C(=O)[C@H](C)[C@@H](O)[C@]1(C)O` [E, erythromycin], for which the “diameter of the inhibition zone, BS” value with Bacillus subtillis [4] stood at 22 mm. Further, the “diameter of the inhibition zone, SA” value with Stapylococcus aureus [5] is 24 mm. Moreover, in the experiment on Escherichia coli [6], the “diameter of the inhibition zone, EC” value turned out to be 30 mm.

Regarding chalcomycin B [1b], the “MIC, BS” value against Bacillus subtillis [1] is 6.25 µg/mL. For the same compound, the “diameter of the inhibition zone, MM” value in the experiment on Mucor miehei is reported as 0 mm. Besides, the “MIC, EC” value in the experiment on Escherichia coli [2] is over 50 µg/mL. In the experiment on Stapylococcus aureus [3], the “MIC, SA” value stood at 0.39 µg/mL. For the same compound, the “diameter of the inhibition zone, BS” value with Bacillus subtillis [4] is listed as 21 mm. In addition, the “MIC, SS” value in the experiment on Scenedesmus subspicatus is 50 µg/mL. Also, in the experiment with Chlorella sorokiniana, the “MIC, CS” value worked out at 50 µg/mL. For the same compound, in the experiment with Stapylococcus aureus [5], the “diameter of the inhibition zone, SA” value turned out to be 23 mm. Further, the “diameter of the inhibition zone, EC” value with Escherichia coli [6] was 28 mm. For the same compound, the “diameter of the inhibition zone, CA” value with Candida albicans is 0 mm.
